Measurements taken from article PMC8766756, “Insights on Cancer Cell Inhibition, Subcellular Activities, and Kinase Profile of Phenylacetamides Pending 1H-Imidazol-5-One Variants” (Frontiers in Pharmacology, 2022).
“And” between values parts separate entries of the source, which are not always exact repeats. Equal entries are not always repeated.

Legend:
Test in all cases: PamChip tyrosine kinase microarray
Format in all cases: biochemical
Conditions in all cases: 0.1 µM, HL60 lysate
RYK (H0Y8A4) = biological target: T1, RYK (H0Y8A4) (Homo sapiens, UniProt P34925)
T1 construct: purchased PamGene (PamChip PTK array, Upstream Kinase Analysis)
Procedure, shortened: (§1)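 HL60 (AML) cell lysate was spiked with compound at 0.001, 0.01, 0.1, 1, 10 and 50 µM, or 2% v/v DMSO as control, then profiled in technical replicates on a tyrosine kinase peptide array of 196 phosphosites. Kinase activity was inferred from peptide-set changes using an upstream kinase tool.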

ITK (Q08881) = biological target: T2, ITK (Q08881) (Homo sapiens, UniProt Q08881)
T2 construct: purchased PamGene (PamChip PTK array, Upstream Kinase Analysis)
T2 sequence (Q08881 1-620): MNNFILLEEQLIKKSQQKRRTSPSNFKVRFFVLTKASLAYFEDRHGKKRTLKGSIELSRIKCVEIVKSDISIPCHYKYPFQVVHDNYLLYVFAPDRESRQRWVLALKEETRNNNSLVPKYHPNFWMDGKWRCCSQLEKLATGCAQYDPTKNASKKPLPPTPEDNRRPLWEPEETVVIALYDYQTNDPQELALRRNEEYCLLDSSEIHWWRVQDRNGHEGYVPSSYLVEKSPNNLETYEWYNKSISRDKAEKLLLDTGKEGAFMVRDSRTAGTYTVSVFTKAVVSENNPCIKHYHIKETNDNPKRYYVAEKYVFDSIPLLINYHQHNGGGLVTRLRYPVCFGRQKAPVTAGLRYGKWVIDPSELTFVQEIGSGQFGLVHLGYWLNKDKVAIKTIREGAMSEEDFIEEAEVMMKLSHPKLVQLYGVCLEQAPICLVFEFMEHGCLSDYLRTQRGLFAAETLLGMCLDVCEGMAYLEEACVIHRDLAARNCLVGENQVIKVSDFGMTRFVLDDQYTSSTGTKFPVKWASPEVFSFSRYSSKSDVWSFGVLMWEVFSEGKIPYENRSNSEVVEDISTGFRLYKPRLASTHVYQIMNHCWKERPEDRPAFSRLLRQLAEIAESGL
Procedure, shortened: as §1

EphA2 (P29317) = biological target: T3, EphA2 (P29317) (Homo sapiens, UniProt P29317)
T3 construct: purchased PamGene (PamChip PTK array, Upstream Kinase Analysis)
Procedure, shortened: as §1

Brk (Q13882) = biological target: T4, Brk (Q13882) (Homo sapiens, UniProt Q13882)
T4 construct: purchased PamGene (PamChip PTK array, Upstream Kinase Analysis)
Procedure, shortened: as §1

FLT3 (P36888) = biological target: T5, FLT3 (P36888) (Homo sapiens, UniProt P36888)
T5 construct: purchased PamGene (PamChip PTK array, Upstream Kinase Analysis)
T5 sequence (P36888 27-993): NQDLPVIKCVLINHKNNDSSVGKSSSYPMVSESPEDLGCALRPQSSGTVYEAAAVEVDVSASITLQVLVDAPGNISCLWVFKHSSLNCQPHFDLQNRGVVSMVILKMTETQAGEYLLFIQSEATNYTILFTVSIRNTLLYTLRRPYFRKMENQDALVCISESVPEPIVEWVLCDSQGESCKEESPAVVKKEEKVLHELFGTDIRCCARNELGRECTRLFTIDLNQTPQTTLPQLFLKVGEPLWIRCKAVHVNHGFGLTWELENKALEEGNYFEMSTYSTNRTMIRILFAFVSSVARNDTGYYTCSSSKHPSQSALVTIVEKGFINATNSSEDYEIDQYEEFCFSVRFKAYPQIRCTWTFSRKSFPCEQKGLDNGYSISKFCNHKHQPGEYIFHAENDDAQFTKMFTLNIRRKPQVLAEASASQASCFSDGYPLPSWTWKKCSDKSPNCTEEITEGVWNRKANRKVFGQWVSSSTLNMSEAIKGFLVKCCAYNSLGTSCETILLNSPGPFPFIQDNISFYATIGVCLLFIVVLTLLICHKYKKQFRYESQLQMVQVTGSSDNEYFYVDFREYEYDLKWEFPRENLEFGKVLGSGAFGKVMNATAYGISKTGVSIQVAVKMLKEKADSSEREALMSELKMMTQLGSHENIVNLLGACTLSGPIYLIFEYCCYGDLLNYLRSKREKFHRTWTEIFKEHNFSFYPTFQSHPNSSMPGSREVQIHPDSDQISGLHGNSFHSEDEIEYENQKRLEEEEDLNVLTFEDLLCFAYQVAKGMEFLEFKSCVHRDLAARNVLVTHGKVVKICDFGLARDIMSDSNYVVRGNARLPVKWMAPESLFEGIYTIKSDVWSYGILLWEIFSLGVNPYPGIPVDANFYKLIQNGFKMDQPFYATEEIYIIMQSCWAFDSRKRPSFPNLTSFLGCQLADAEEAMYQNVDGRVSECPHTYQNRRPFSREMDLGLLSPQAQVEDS
Procedure, shortened: as §1

T1 sequence (P34925 26-607, one chain of several): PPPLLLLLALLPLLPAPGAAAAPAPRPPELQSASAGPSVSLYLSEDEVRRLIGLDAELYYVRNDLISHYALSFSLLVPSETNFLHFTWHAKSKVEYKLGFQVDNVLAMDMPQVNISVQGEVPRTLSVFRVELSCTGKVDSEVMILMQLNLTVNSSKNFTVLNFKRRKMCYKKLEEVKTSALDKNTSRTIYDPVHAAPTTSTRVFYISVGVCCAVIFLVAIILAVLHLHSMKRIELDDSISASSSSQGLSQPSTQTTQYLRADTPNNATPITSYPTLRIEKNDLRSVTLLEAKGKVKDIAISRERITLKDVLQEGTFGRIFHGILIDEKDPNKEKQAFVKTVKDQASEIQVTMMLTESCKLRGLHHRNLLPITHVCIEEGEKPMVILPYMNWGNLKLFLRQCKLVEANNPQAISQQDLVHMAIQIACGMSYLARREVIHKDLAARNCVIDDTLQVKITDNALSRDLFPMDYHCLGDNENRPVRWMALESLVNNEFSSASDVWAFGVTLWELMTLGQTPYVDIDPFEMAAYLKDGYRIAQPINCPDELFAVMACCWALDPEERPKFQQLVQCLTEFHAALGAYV
T3 sequence (P29317 24-976): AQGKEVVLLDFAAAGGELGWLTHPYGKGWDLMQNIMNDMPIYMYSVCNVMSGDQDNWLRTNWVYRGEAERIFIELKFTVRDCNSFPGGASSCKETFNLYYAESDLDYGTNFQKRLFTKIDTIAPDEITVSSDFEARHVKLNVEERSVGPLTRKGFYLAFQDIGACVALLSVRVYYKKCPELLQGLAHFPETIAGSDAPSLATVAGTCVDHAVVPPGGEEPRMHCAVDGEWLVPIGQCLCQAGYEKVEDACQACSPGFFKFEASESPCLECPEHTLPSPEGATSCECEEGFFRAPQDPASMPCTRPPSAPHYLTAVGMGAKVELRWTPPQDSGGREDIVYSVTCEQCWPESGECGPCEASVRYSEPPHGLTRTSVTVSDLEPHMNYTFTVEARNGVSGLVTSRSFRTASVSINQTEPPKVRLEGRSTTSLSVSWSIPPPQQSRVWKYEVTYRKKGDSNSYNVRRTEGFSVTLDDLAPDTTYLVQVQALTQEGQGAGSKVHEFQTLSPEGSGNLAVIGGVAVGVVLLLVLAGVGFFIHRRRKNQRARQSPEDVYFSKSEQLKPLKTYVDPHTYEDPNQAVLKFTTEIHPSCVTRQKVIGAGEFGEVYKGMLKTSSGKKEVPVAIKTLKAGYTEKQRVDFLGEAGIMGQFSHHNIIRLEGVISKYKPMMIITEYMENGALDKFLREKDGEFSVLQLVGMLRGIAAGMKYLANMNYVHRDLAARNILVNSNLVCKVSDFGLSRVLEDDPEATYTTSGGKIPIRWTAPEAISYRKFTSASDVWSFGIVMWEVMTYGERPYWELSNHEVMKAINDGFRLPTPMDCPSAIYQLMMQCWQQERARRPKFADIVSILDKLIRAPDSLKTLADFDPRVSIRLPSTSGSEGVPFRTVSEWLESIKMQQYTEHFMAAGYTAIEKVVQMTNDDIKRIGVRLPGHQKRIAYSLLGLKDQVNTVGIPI
T4 sequence (Q13882 whole entry): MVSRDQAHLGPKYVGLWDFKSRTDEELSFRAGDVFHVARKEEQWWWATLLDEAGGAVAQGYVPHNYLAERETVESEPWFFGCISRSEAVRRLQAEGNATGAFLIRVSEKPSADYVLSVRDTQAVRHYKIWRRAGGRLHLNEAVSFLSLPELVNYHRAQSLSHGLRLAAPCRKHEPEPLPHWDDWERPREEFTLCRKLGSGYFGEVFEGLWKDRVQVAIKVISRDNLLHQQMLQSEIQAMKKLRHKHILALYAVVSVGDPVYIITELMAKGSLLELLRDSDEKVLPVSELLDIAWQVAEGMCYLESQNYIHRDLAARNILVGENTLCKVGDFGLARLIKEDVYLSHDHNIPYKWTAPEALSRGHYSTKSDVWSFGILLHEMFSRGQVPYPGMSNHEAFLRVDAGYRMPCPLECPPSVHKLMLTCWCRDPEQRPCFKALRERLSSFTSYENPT

In the case of `COc1ccc(/C=C2\N=C(C)N(c3ccc(CC(=O)NCc4ccccc4)cc3)C2=O)cc1` [Compound 4c, (Z)-N-Benzyl-2-(4-(4-(4-methoxybenzylidene)-2-methyl-5-oxo-4,5-dihydro-1H-imidazol-1-yl)phenyl)acetamide], the “Mean Final score (Kinase score)” value (RYK (H0Y8A4)) is reported as 2.574, the “Mean Kinase Statistic” value (RYK (H0Y8A4)) is reported as -1.293 and the “Mean Significance Score” value (RYK (H0Y8A4)) is reported as 2.048. For the same compound, the “Mean Specificity Score” value (RYK (H0Y8A4)) was 0.5126, the “Mean Significance Score” value (ITK (Q08881)) was 2.048 and the “Mean Specificity Score” value (ITK (Q08881)) was 2.074. For the same compound, the “Mean Final score (Kinase score)” value (ITK (Q08881); listed as KIM-161) was 3.95 and 3.951, the “Mean Significance Score” value (EphA2 (P29317)) was 1.975 and the “Mean Specificity Score” value (EphA2 (P29317)) was 0.9606. For the same compound, the “Mean Final score (Kinase score)” value (EphA2 (P29317); listed as KIM-161) was 3.09 and 3.095, the “Mean Final score (Kinase score)” value (Brk (Q13882)) was 2.481 and the “Mean Kinase Statistic” value (Brk (Q13882)) was -1.21. The “Mean Significance Score” value (Brk (Q13882)) was 2.048, the “Mean Specificity Score” value (Brk (Q13882)) was 0.446 and the “Mean Significance Score” value (FLT3 (P36888)) was 2.042. The “Mean Specificity Score” value (FLT3 (P36888)) was 1.043 and the “Mean Final score (Kinase score)” value (FLT3 (P36888); listed as KIM-161) was 3.19 and 3.193.
